{"source": "paper PMC5218480", "about": "(PLoS ONE, 2017)", "tested_on": "MV-4-11 cells", "assay": "Gene expression microarray analysis (Affymetrix PrimeView) and GSEA", "type": "cell-based, human", "design": "RFU PODN (11730768_x_at) / Fold change /veh PODN (11730768_x_at) / RFU LINC00158 (11744669_a_at) / Fold change /veh LINC00158 (11744669_a_at) / RFU DUSP10 (11751237_a_at) / Fold change /veh DUSP10 (11751237_a_at) / RFU ID3 (11757404_x_at) / Fold change /veh ID3 (11757404_x_at) / RFU PLEKHG5 (11737974_s_at) / Fold change /veh PLEKHG5 (11737974_s_at) / RFU LRRC4B (11730491_at) / Fold change /veh LRRC4B (11730491_at) / RFU GIMAP4 (11747438_a_at) / Fold change /veh GIMAP4 (11747438_a_at) / RFU KRT8 (11758183_x_at) / Fold change /veh KRT8 (11758183_x_at) / RFU CNN1 (11734310_a_at) / Fold change /veh CNN1 (11734310_a_at) / RFU VPS37D (11726825_at) / Fold change /veh VPS37D (11726825_at) / RFU C10orf10 (11716522_x_at) / Fold change /veh C10orf10 (11716522_x_at) / RFU KIR2DL2 /// KIR2DL4 /// KIR2DL5A /// KIR2DL5B /// KIR2DS1 /// KIR2DS2 /// KIR2DS3 /// KIR2DS4 /// KIR3DL3 /// KIR3DL3 /// KIR3DS1 (11738374_at) / Fold change /veh KIR2DL2 /// KIR2DL4 /// KIR2DL5A /// KIR2DL5B /// KIR2DS1 /// KIR2DS2 /// KIR2DS3 /// KIR2DS4 /// KIR3DL3 /// KIR3DL3 /// KIR3DS1 (11738374_at) / RFU C1QL1 (11718748_at) / Fold change /veh C1QL1 (11718748_at) / RFU TMPRSS4 (11747572_a_at) / Fold change /veh TMPRSS4 (11747572_a_at) / RFU HAMP (11756126_x_at) / Fold change /veh HAMP (11756126_x_at) / RFU RNFT2 (11725882_a_at) / Fold change /veh RNFT2 (11725882_a_at) / RFU NR4A2 (11747474_a_at) / Fold change /veh NR4A2 (11747474_a_at) / RFU ABCC12 (11746883_a_at) / Fold change /veh ABCC12 (11746883_a_at) / RFU TMEM136 (11760407_x_at) / Fold change /veh TMEM136 (11760407_x_at) / RFU CLDN22 /// WWC2 (11732394_at) / Fold change /veh CLDN22 /// WWC2 (11732394_at) / RFU HLA-DPB1 (11760878_x_at) / Fold change /veh HLA-DPB1 (11760878_x_at) / RFU SPINT1 (11716480_a_at) / Fold change /veh SPINT1 (11716480_a_at) / RFU GAP43 (11754022_s_at) / Fold change /veh GAP43 (11754022_s_at) / RFU A4GNT (11735810_at) / Fold change /veh A4GNT (11735810_at) / RFU PRB3 (11715151_x_at) / Fold change /veh PRB3 (11715151_x_at) / RFU TUBB4B (11761932_at) / Fold change /veh TUBB4B (11761932_at) / RFU CAPN14 (11732068_a_at) / Fold change /veh CAPN14 (11732068_a_at) / RFU TMCC2 (11721928_a_at) / Fold change /veh TMCC2 (11721928_a_at) / RFU IRGQ (11745062_a_at) / Fold change /veh IRGQ (11745062_a_at) / RFU FAM174B (11720279_a_at) / Fold change /veh FAM174B (11720279_a_at) / RFU TMPRSS4 (11748680_a_at) / Fold change /veh TMPRSS4 (11748680_a_at) / RFU FAM212B (11763350_a_at) / Fold change /veh FAM212B (11763350_a_at) / RFU PLEKHG5 (11743358_a_at) / Fold change /veh PLEKHG5 (11743358_a_at) / RFU ZSCAN30 (11745921_a_at) / Fold change /veh ZSCAN30 (11745921_a_at) / RFU CMKLR1 (11741424_a_at) / Fold change /veh CMKLR1 (11741424_a_at) / RFU LOC101060620 /// MAPK8IP1 (11723275_at) / Fold change /veh LOC101060620 /// MAPK8IP1 (11723275_at) / RFU SPTSSB (11747773_x_at) / Fold change /veh SPTSSB (11747773_x_at) / RFU PRSS12 (11739890_at) / Fold change /veh PRSS12 (11739890_at) / RFU BIN1 (11741810_x_at) / Fold change /veh BIN1 (11741810_x_at) / RFU WNT11 (11732464_a_at) / Fold change /veh WNT11 (11732464_a_at) / RFU C10orf10 (11716521_a_at) / Fold change /veh C10orf10 (11716521_a_at) / RFU C5orf56 (11738089_at) / Fold change /veh C5orf56 (11738089_at) / RFU CYB561 (11721691_x_at) / Fold change /veh CYB561 (11721691_x_at) / RFU ANKRD19P (11752326_a_at) / Fold change /veh ANKRD19P (11752326_a_at) / RFU OR2T12 /// OR2T33 /// OR2T8 (11738714_s_at) / Fold change /veh OR2T12 /// OR2T33 /// OR2T8 (11738714_s_at) / RFU VCAN (11748164_a_at) / Fold change /veh VCAN (11748164_a_at) / RFU JSRP1 (11732532_at) / Fold change /veh JSRP1 (11732532_at) / RFU KRTAP10-11 (11738290_x_at) / Fold change /veh KRTAP10-11 (11738290_x_at) / RFU MYO3A (11730013_a_at) / Fold change /veh MYO3A (11730013_a_at) / RFU EBF3 (11725865_a_at) / Fold change /veh EBF3 (11725865_a_at) / RFU CAMK2N1 (11719241_x_at) / Fold change /veh CAMK2N1 (11719241_x_at) / RFU C5orf56 (11738088_a_at) / Fold change /veh C5orf56 (11738088_a_at) / RFU OLFML3 (11715873_a_at) / Fold change /veh OLFML3 (11715873_a_at) / RFU LOC100653217 /// NTM (11731650_a_at) / Fold change /veh LOC100653217 /// NTM (11731650_a_at) / RFU MAPK11 (11762145_a_at) / Fold change /veh MAPK11 (11762145_a_at) / RFU FIZ1 (11724087_x_at) / Fold change /veh FIZ1 (11724087_x_at) / RFU OASL (11726364_x_at) / Fold change /veh OASL (11726364_x_at) / RFU SOX15 (11748057_x_at) / Fold change /veh SOX15 (11748057_x_at) / RFU CD79A (11719716_a_at) / Fold change /veh CD79A (11719716_a_at) / RFU HIST1H1D (11736915_at) / Fold change /veh HIST1H1D (11736915_at) / RFU CASKIN2 (11723855_a_at) / Fold change /veh CASKIN2 (11723855_a_at) / RFU LOC730098 (11760151_x_at) / Fold change /veh LOC730098 (11760151_x_at) / RFU OR4N2 (11742367_at) / Fold change /veh OR4N2 (11742367_at) / RFU PRRT2 (11749266_a_at) / Fold change /veh PRRT2 (11749266_a_at) / RFU SNX32 (11753110_a_at) / Fold change /veh SNX32 (11753110_a_at) / RFU CDHR5 (11726645_a_at) / Fold change /veh CDHR5 (11726645_a_at) / RFU RCAN1 (11760418_a_at) / Fold change /veh RCAN1 (11760418_a_at) / RFU FAM167A (11723789_a_at) / Fold change /veh FAM167A (11723789_a_at) / RFU FAM26E (11764081_at) / Fold change /veh FAM26E (11764081_at) / RFU ISYNA1 (11749810_s_at) / Fold change /veh ISYNA1 (11749810_s_at) / RFU ACY1 (11761880_at) / Fold change /veh ACY1 (11761880_at) / RFU 11764098_at / Fold change /veh 11764098_at / RFU SAMD14 (11745864_x_at) / Fold change /veh SAMD14 (11745864_x_at) / RFU NPB (11741838_a_at) / Fold change /veh NPB (11741838_a_at) / RFU TMPRSS6 (11731388_a_at) / Fold change /veh TMPRSS6 (11731388_a_at) / RFU KRTAP10-2 (11738614_at) / Fold change /veh KRTAP10-2 (11738614_at) / RFU ARHGAP8 /// PRR5-ARHGAP8 (11727945_x_at) / Fold change /veh ARHGAP8 /// PRR5-ARHGAP8 (11727945_x_at) / RFU KRTAP5-7 /// NADSYN1 (11734609_at) / Fold change /veh KRTAP5-7 /// NADSYN1 (11734609_at) / RFU RASL12 (11751679_a_at) / Fold change /veh RASL12 (11751679_a_at) / RFU CDKN2B (11736163_a_at) / Fold change /veh CDKN2B (11736163_a_at) / RFU PRF1 (11729649_at) / Fold change /veh PRF1 (11729649_at) / RFU, ZNF638 /// ZNF638-IT1 / Fold change vs veh, ZNF638 /// ZNF638-IT1 / RFU, PANK3 / Fold change vs veh, PANK3 / RFU, SH3YL1 / Fold change vs veh, SH3YL1 / RFU, ZEB2 / Fold change vs veh, ZEB2 / RFU, NRIP1 / Fold change vs veh, NRIP1 / RFU, PTTG1IP / Fold change vs veh, PTTG1IP / RFU, CAPN2 / Fold change vs veh, CAPN2 / RFU, MED14 / Fold change vs veh, MED14 / RFU, SNORA58 / Fold change vs veh, SNORA58 / RFU, C1orf63 / Fold change vs veh, C1orf63 / RFU, LRRFIP1 / Fold change vs veh, LRRFIP1 / RFU, NDUFAF7 / Fold change vs veh, NDUFAF7 / RFU, SLC12A2 / Fold change vs veh, SLC12A2 / RFU, IBTK / Fold change vs veh, IBTK / RFU, ESF1 / Fold change vs veh, ESF1 / Fold change vs veh, TMEM50B / RFU, TAOK1 / Fold change vs veh, TAOK1 / RFU, ACBD3 / Fold change vs veh, ACBD3 / RFU, TMA16 / Fold change vs veh, TMA16 / RFU, RWDD3 / Fold change vs veh, RWDD3 / RFU, BCAT1 / Fold change vs veh, BCAT1 / RFU, EDEM3 / Fold change vs veh, EDEM3 / RFU, TMEM33 / Fold change vs veh, TMEM33 / RFU, WDR75 / Fold change vs veh, WDR75 / RFU, AHCTF1 / Fold change vs veh, AHCTF1 / RFU, TFRC / Fold change vs veh, TFRC / RFU, ZDHHC17 / Fold change vs veh, ZDHHC17 / RFU, NOM1 / Fold change vs veh, NOM1 / RFU, ARL8B / Fold change vs veh, ARL8B / RFU, ZBTB11 / Fold change vs veh, ZBTB11 / RFU, TAMM41 / Fold change vs veh, TAMM41 / RFU, KIAA1704 /// LOC100996395 / Fold change vs veh, KIAA1704 /// LOC100996395 / RFU, ING1 / Fold change vs veh, ING1 / RFU, TRMT61B / Fold change vs veh, TRMT61B / RFU, FUBP3 / Fold change vs veh, FUBP3 / RFU, TP53 / Fold change vs veh, TP53 / RFU, TNKS2 / Fold change vs veh, TNKS2 / RFU, ZFP14 / Fold change vs veh, ZFP14 / RFU, ACTR2 / Fold change vs veh, ACTR2 / RFU, PPP3R1 / Fold change vs veh, PPP3R1 / RFU, PIK3R1 / Fold change vs veh, PIK3R1 / RFU, HNRNPA1 / Fold change vs veh, HNRNPA1 / RFU, RNF170 / Fold change vs veh, RNF170 / RFU, ZNF28 / Fold change vs veh, ZNF28 / RFU, RNGTT / Fold change vs veh, RNGTT / RFU, OGT / Fold change vs veh, OGT / RFU, BRD1 / Fold change vs veh, BRD1 / RFU, MARS / Fold change vs veh, MARS / RFU, ZNF655 / Fold change vs veh, ZNF655 / RFU, FAHD1 / Fold change vs veh, FAHD1 / RFU, BDP1 / Fold change vs veh, BDP1 / RFU, LRRCC1 / Fold change vs veh, LRRCC1 / RFU, ARID1A / Fold change vs veh, ARID1A / RFU, ZNF146 / Fold change vs veh, ZNF146 / RFU, ZNF330 / Fold change vs veh, ZNF330 / RFU, GPN3 / Fold change vs veh, GPN3 / RFU, C9orf123 / Fold change vs veh, C9orf123 / RFU, N4BP2L2 / Fold change vs veh, N4BP2L2 / RFU, ARFIP1 / Fold change vs veh, ARFIP1 / RFU, FAM179B / Fold change vs veh, FAM179B / RFU, BCL10 / Fold change vs veh, BCL10 / RFU, UHRF1BP1L / Fold change vs veh, UHRF1BP1L / RFU, BET1 / Fold change vs veh, BET1 / RFU, CNOT2 / Fold change vs veh, CNOT2 / RFU, ZNF268 / Fold change vs veh, ZNF268 / Fold change vs veh, ZNF507 / RFU, DGCR2 / Fold change vs veh, DGCR2 / RFU, WDSUB1 / Fold change vs veh, WDSUB1 / Fold change vs veh, HSP90B1 /// MIR3652 / RFU, ADSS / Fold change vs veh, ADSS / RFU, GK / Fold change vs veh, GK / RFU, ZNF148 / Fold change vs veh, ZNF148 / RFU, TAF9 / Fold change vs veh, TAF9 / RFU, SLC1A5 / Fold change vs veh, SLC1A5 / RFU, SLMO2 / Fold change vs veh, SLMO2 / RFU, ABCC4 / Fold change vs veh, ABCC4 / RFU, LOC101060439 /// RAP1B / Fold change vs veh, LOC101060439 /// RAP1B / RFU, RFX7 / Fold change vs veh, RFX7 / RFU, GTPBP10 / Fold change vs veh, GTPBP10 / RFU, CNEP1R1 / Fold change vs veh, CNEP1R1 / RFU, BIVM-ERCC5 /// ERCC5 / Fold change vs veh, BIVM-ERCC5 /// ERCC5 / RFU, ILF3 / Fold change vs veh, ILF3 / RFU 11762660_at / Fold change /veh 11762660_at / RFU VCAN (11757783_s_at) / Fold change /veh VCAN (11757783_s_at) / RFU DDX43 (11728927_at) / Fold change /veh DDX43 (11728927_at) / RFU KRT8 (11758188_x_at) / Fold change /veh KRT8 (11758188_x_at) / RFU NKD1 (11759106_at) / Fold change /veh NKD1 (11759106_at) / RFU SRD5A1 (11742802_a_at) / Fold change /veh SRD5A1 (11742802_a_at) / RFU TPSAB1 /// TPSB2 (11721975_s_at) / Fold change /veh TPSAB1 /// TPSB2 (11721975_s_at) / RFU GSTM3 (11746129_a_at) / Fold change /veh GSTM3 (11746129_a_at) / RFU IL23R (11737362_x_at) / Fold change /veh IL23R (11737362_x_at) / RFU TMEM51 (11727254_a_at) / Fold change /veh TMEM51 (11727254_a_at) / RFU PIWIL2 (11732686_x_at) / Fold change /veh PIWIL2 (11732686_x_at) / RFU ORM1 (11744905_x_at) / Fold change /veh ORM1 (11744905_x_at) / RFU CCDC152 (11743942_at) / Fold change /veh CCDC152 (11743942_at) / RFU ECM1 (11717891_a_at) / Fold change /veh ECM1 (11717891_a_at) / RFU IL23R (11748794_a_at) / Fold change /veh IL23R (11748794_a_at) / RFU TNFAIP8L3 (11732012_x_at) / Fold change /veh TNFAIP8L3 (11732012_x_at) / RFU MBOAT4 (11741988_at) / Fold change /veh MBOAT4 (11741988_at) / RFU 11764193_at / Fold change /veh 11764193_at / RFU TMEM53 (11763286_at) / Fold change /veh TMEM53 (11763286_at) / RFU MAGEB2 (11727129_at) / Fold change /veh MAGEB2 (11727129_at) / RFU TMEM200A (11744735_a_at) / Fold change /veh TMEM200A (11744735_a_at) / RFU CCDC152 (11751479_a_at) / Fold change /veh CCDC152 (11751479_a_at) / RFU FAM211A (11726209_a_at) / Fold change /veh FAM211A (11726209_a_at) / RFU RGS16 (11746705_a_at) / Fold change /veh RGS16 (11746705_a_at) / RFU VCAN (11755009_s_at) / Fold change /veh VCAN (11755009_s_at) / RFU RHOB (11743442_s_at) / Fold change /veh RHOB (11743442_s_at) / RFU RGS16 (11720943_a_at) / Fold change /veh RGS16 (11720943_a_at) / RFU RGS16 (11720944_at) / Fold change /veh RGS16 (11720944_at) / RFU, VPS4B / Fold change vs veh, VPS4B / RFU, CREB1 / Fold change vs veh, CREB1 / RFU, DNAJC13 / Fold change vs veh, DNAJC13 / RFU, GNAQ / Fold change vs veh, GNAQ / RFU, CDK5R1 / Fold change vs veh, CDK5R1 / RFU, ZRANB3 / Fold change vs veh, ZRANB3 / RFU, CUL4A / Fold change vs veh, CUL4A / RFU, CCNY / Fold change vs veh, CCNY / RFU, UFL1 / Fold change vs veh, UFL1 / RFU, COG3 / Fold change vs veh, COG3 / RFU, DIAPH2 / Fold change vs veh, DIAPH2 / RFU, SKA2 / Fold change vs veh, SKA2 / RFU, AFF3 / Fold change vs veh, AFF3 / RFU, LMF1 / Fold change vs veh, LMF1 / RFU, IPO11 / Fold change vs veh, IPO11 / RFU, DFFB / Fold change vs veh, DFFB / RFU, FOXP1 / Fold change vs veh, FOXP1 / RFU, CARD8 / Fold change vs veh, CARD8 / RFU, STRN3 / Fold change vs veh, STRN3 / RFU, ADK / Fold change vs veh, ADK / RFU, RASSF2 / Fold change vs veh, RASSF2 / RFU, WIPF1 / Fold change vs veh, WIPF1 / RFU, LARP1B / Fold change vs veh, LARP1B / RFU, RASA1 / Fold change vs veh, RASA1 / RFU, RB1 / Fold change vs veh, RB1 / RFU, PPFIA1 / Fold change vs veh, PPFIA1 / RFU, MAT2A / Fold change vs veh, MAT2A / RFU, CCT5 / Fold change vs veh, CCT5 / RFU, WDR92 / Fold change vs veh, WDR92 / RFU, CUX1 / Fold change vs veh, CUX1 / RFU, TTC7A / Fold change vs veh, TTC7A / RFU, TMEM135 / Fold change vs veh, TMEM135 / RFU, DEPTOR / Fold change vs veh, DEPTOR / RFU, CPM / Fold change vs veh, CPM / RFU, DNAJB6 / Fold change vs veh, DNAJB6 / RFU, CACNA2D3 / Fold change vs veh, CACNA2D3 / RFU, DTX4 / Fold change vs veh, DTX4 / RFU, TFCP2 / Fold change vs veh, TFCP2 / RFU, GMCL1 /// GMCL1P1 / Fold change vs veh, GMCL1 /// GMCL1P1 / RFU, AEBP2 / Fold change vs veh, AEBP2 / RFU, SNHG1 /// SNORD22 /// SNORD25 /// SNORD26 /// SNORD27 /// SNORD28 /// SNORD29 /// SNORD31 / Fold change vs veh, SNHG1 /// SNORD22 /// SNORD25 /// SNORD26 /// SNORD27 /// SNORD28 /// SNORD29 /// SNORD31 / Fold change (Aza/veh), C12orf56 (ProbeSet 11735607_a_at) / Fold change (ACY-1035/veh), C12orf56 (ProbeSet 11735607_a_at) / Fold change (Aza/veh), FGFR1OP (ProbeSet 11751329_s_at) / Fold change (ACY-1035/veh), FGFR1OP (ProbeSet 11751329_s_at) / Fold change (Aza/veh), VPS36 (ProbeSet 11739960_a_at) / Fold change (ACY-1035/veh), VPS36 (ProbeSet 11739960_a_at) / RFU SYPL1 (11715823_x_at) / Fold change /veh SYPL1 (11715823_x_at) / RFU IGFBP7 (11715501_s_at) / Fold change /veh IGFBP7 (11715501_s_at) / RFU REEP3 (11722064_at) / Fold change /veh REEP3 (11722064_at) / RFU IGLL1 (11728026_x_at) / Fold change /veh IGLL1 (11728026_x_at): dose or concentration left out as unconfirmed", "conditions": "MV-4-11 cells, 48 hours", "data": [{"smiles": "Nc1ccc(-c2cccs2)cc1NC(=O)c1ccc2c(c1)cc(C1CC1)n2CCN1CCOCC1", "note": "[ACY-1035]", "values": [{"measurement": "RFU IGFBP7 (11715501_s_at)", "result": 134.15, "unit": "RFU"}]}]}
